# Reference: US9670162B2, “Mitochondrial aldehyde dehyrogenase-2 modulators and methods of use thereof” (The Board of Trustees of the Leland Stanford Junior …, priority 2013, dated 2017)
# Changes are numbered by the printed parent chain.
# Legend:
# [1] = target: T1, human ALDH2 wild type (Homo sapiens, UniProt P05091); experiment: ALDH2 enzymatic assay (NADH at 340 nm), recombinant wild type enzyme; type: biochemical; parameters: key: −: no activation or inhibition; +: activation less than control 1; ++: activation similar to control 1, within 10%; +++: activation more than control 1 and less than control (compound 161); ++++: activation similar to compound 161, within 10%; conditions: activation relative to benchmarks control 1 and compound 161
# T1 construct: His-tag (pTrcHis vector) (N); made in house; host or cells: E. coli BL21
# T1 sequence (P05091 18-517): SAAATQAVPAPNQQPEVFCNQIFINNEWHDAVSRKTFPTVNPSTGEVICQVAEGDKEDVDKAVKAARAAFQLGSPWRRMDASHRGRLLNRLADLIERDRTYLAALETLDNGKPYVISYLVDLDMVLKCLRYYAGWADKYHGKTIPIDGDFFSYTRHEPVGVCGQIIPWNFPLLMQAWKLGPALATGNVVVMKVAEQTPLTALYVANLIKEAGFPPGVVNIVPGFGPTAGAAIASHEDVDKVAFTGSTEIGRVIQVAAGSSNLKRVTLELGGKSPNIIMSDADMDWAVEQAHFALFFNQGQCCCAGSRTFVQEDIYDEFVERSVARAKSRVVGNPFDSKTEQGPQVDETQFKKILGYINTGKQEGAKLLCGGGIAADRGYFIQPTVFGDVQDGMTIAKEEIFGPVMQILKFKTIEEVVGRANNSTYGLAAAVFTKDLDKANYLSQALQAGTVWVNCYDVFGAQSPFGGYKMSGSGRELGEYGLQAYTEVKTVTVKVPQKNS
# Text: (§1) ALDH2 catalyzes the oxidative reaction of substrate acetaldehyde to acetic acid using NAD^+ as a cofactor. Enzymatic activity, or catalytic rate, of aldehyde dehydrogenase (ALDH2) can be measured spectrophotometrically at UV wavelength λ340 nm by the accumulation of reduced product NADH derived from NAD^+. […] This method is well-established in the literature [e.g. D. K. Rex, W. F. Bosron, J. E. Smialek, T. K. Li, Alcohol Clin Exp Res 9, 147 (1985)].
# (§2) Full-length wild type human ALDH2 cDNA was purchased from ATCC (No. MGC-1806. GenBank ID: BC002967). The 18-amino acid mitochondria transport signal sequence was removed by PCR and cloned into the NheI/HindIII sites of a His-tag vector, pTrcHis, using standard molecular cloning techniques. The human ALDH2* cDNA construct containing the Asian E487K mutation was obtained by site-directed mutagenesis to create the E487K substitution of the wild type ALDH2. Both human clones were designed to express a recombinant protein with the His-tag at the N-terminus of the protein. For the co-expression experiments of human ALDH2 wild type and ALDH2*2 heterotetramers, a wild type ALDH2 gene and a ALDH2 E487K gene were inserted separately into the two multiple cloning sites of pETDuet-1 vector. (Novagen, Calif., USA). All the vectors were transformed into BL21 E. coli host cells and subjected to 0.5 mM IPTG induction for protein expression at 30° C. Purifications of the recombinant proteins by affinity nickel columns (HisTrap, GE Healthy Science, USA) were carried out using standard protocols according to manufacturer's instructions (Novagen, USA).
# (§3) Control 1 and compound 161 are used as benchmarks and the symbols have the following representation: […]
# [2] = target: T2, human ALDH2*2 recombinant mutant enzyme (E487K) (Homo sapiens, UniProt P05091, E504K); experiment: ALDH2 enzymatic assay (NADH at 340 nm), recombinant mutant enzyme; type: biochemical; parameters: key: −: no activation or inhibition; +: activation less than control 1; ++: activation similar to control 1, within 10%; +++: activation more than control 1 and less than control (compound 161); ++++: activation similar to compound 161, within 10%; conditions: activation relative to benchmarks control 1 and compound 161
# T2 construct: His-tag (pTrcHis vector) (N); made in house; host or cells: E. coli BL21
# T2 sequence (P05091 18-517 E504K): T1 sequence (P05091 18-517) with E487K
# Text: as §1, §2, §3
SMILES,ALDH2 (wild-type) [1],ALDH2 (mutant) [2]
COc1ccc(CNC(=O)c2c(Cl)cccc2Oc2ccc(C)cc2)cc1F [Compound 132],+,+
COc1ccc(CNC(=O)c2c(OC)ccnc2OCC2CC2)cc1F [Compound 251],+,+
COc1ccc(CNC(=O)c2c(Cl)ccnc2OCC2CCCC2)cc1F [Compound 200],++,++
COc1ccc(CNC(=O)c2c(C)ccnc2OCC2CCC2)cc1F [Compound 235],+,+
COc1ccc(CNC(=O)c2c(Cl)ccnc2OCC2(C)CC2)cc1F [Compound 178],++++,++++
O=C(NCc1ccc(=O)[nH]c1)c1c(Cl)ccnc1OCC1CC1 [Compound 254],+,+
O=C(NCc1ccc2c(c1)OCO2)c1c(Cl)cccc1NC1CCCNC1 (stereo not drawn) [Compound 133],+,+
O=C(NCc1ccc([N+](=O)[O-])cc1)c1c(Cl)cccc1Br [Compound 128],+,+
CCC(C)Sc1nccc(Cl)c1C(=O)NCc1ccc(OC)c(F)c1 (stereo not drawn) [Compound 217],+,++
COc1ccc(CNC(=O)c2c(C)ccnc2OCC2CCCC2)cc1F [Compound 236],+,+
COc1ccc(CNC(=O)c2c(Cl)cccc2OCC2(C)CC2)cc1F [Compound 151],++++,++++
COc1ccc(CNC(=O)c2c(C)cccc2C)cc1F [Compound 119],−,+
COc1ccc(CNC(=O)c2c(Cl)ccnc2OCC(C)(C)C)cc1F [Compound 203],++,++
COc1ccc(CNC(=O)c2c(Cl)cncc2OCC(C)C)cc1F [Compound 240],+,++
COc1ccc(CNC(=O)c2c(Cl)ccnc2S(=O)(=O)C(C)C)cc1F [Compound 222],+,+
COc1ccc(CNC(=O)c2c(Cl)ccnc2S(=O)(=O)CC(C)C)cc1F [Compound 224],+,+
COc1ccc(CNC(=O)c2c(Cl)cccc2NCc2ccc(Cl)cc2)cc1F [Compound 130],−,−
COc1ccc(CNC(=O)c2c(Cl)ccnc2CCC(C)C)cc1F [Compound 250],+,+
COc1ccc(CNC(=O)c2c(C(F)(F)F)ccnc2OC(C)C)cc1F [Compound 227],+,+
COc1ncc(CNC(=O)c2c(Cl)ccnc2OCC2CC2)cc1F [Compound 246],+,++
COc1ccc(CNC(=O)c2c(C(F)(F)F)ccnc2OCC2CC2)cc1F [Compound 225],+,+
COc1ccc(CNC(=O)c2c(Cl)cccc2OCC2CCCC2)cc1F [Compound 145],++,+++
C=CCOc1cccc(Cl)c1C(=O)NCc1ccc(OC)c(F)c1 [Compound 141],++,+++
COc1cc(CNC(=O)c2c(Cl)ccnc2OCC2CC2)ccc1F [Compound 172],+,+

SMILES,ALDH2 (wild-type) [1],ALDH2 (mutant) [2]
COc1ccc(CNC(=O)c2c(C)cccc2Br)cc1 [Compound 113],+,+
COc1ccc(CNC(=O)c2ccc(Br)cc2C)cc1F [Compound 124],+,+
COc1ccc(CNC(=O)c2c(NCCO)cccc2NCCO)cc1F [Compound 120],−,+
CCC(C)S(=O)(=O)c1nccc(Cl)c1C(=O)NCc1ccc(OC)c(F)c1 (stereo not drawn) [Compound 223],+,+
CCC(CC)Oc1cccc(Cl)c1C(=O)NCc1ccc(OC)c(F)c1 [Compound 142],++,+++
COc1ccc(CNC(=O)c2c(Cl)cccc2OC)cc1F [Compound 138],++,+++
O=S(=O)(NCc1ccc(F)c(F)c1)c1c(Cl)cccc1Cl [Compound 156],−,+
COc1ccc(CNC(=O)c2c(Cl)ccnc2SC(C)C)cc1F [Compound 216],+,+
COc1ccc(CNC(=O)c2c(Cl)cccc2NCc2cccc(C)c2)cc1F [Compound 129],−,−
COc1ccc(CNC(=O)c2c(Cl)ccnc2Cl)cc1F [Compound 157],++,++
COc1ccc(CNC(=O)c2c(C(F)(F)F)ccnc2OCC(C)C)cc1F [Compound 226],+,+
COc1ccc(CNC(=O)c2c(Cl)ccnc2OC(C)C)cc1F [Compound 195],++,++
O=C(NCc1ccc2ncoc2c1)c1c(Cl)ccnc1OCC1CC1 [Compound 259],+,+
CCCOc1cccc(Cl)c1C(=O)NCc1ccc(OC)c(F)c1 [Compound 147],+++,+++
O=C(NCc1ccc2ncsc2c1)c1c(Cl)ccnc1OCC1CC1 [Compound 264],−,−
COc1ccc(CNC(=O)c2c(Cl)ccnc2NCC(C)O)cc1F (stereo not drawn) [Compound 185],+,+
COc1ccc(CNC(=O)c2c(Cl)ccnc2OCC(C)C)cc1F [Compound 183],++,++
O=C(NCc1ccc(OC(F)(F)F)c(F)c1)c1c(Cl)ccnc1Cl [Compound 175],+,++
COc1ccc(CNC(=O)c2c(OCC3CC3)ccnc2Cl)cc1F [Compound 170],++,+++
O=C(NCc1ccc(F)c(F)c1)c1c(Cl)ccnc1OCC1CC1 [Compound 180],+,+
COc1ccc(CNC(=O)c2c(Cl)ccnc2OCCN(C)C)cc1F [Compound 184],+,++
COc1ccc(CNC(=O)c2c(Cl)cc[n+]([O-])c2Cl)cc1F [Compound 168],+,+
COc1ccc(CNC(=O)c2c(Cl)cccc2Oc2cccc(C)c2)cc1F [Compound 131],+,+
COc1ccc(CNC(=O)c2c(Cl)cncc2OCC2CC2)cc1F [Compound 239],++,+++
